Assay results: patent publication US20220305121A1, “N-ARYL SULFONAMIDE DERIVATIVES AS VACCINE ADJUVANT” (The Regents of the University of California, priority 2019, published 2022)
“Also recorded” adds a separate entry of the source.

Assays:
Assay type in all cases: cell-based
NF-κB and ISRE = NF-κB and ISRE reporter assays (primary screens), statements in words for both assays; conditions: with LPS or IFN-α as primary stimulus; compared to compound 1
Procedure: (§1) THP1-Blue™ NF-κB cells were plated in 96-well plates at 10^5 cells/well in 100 μl RPMI supplemented with 10% fetal bovine serum (FBS, Omega Scientific, Inc., Tarzana, Calif.), 100 U/mL penicillin, 100 μg/ml streptomycin (Thermo Fisher Scientific) and Normocin (Invivogen). LPS was prepared in assay medium at a concentration of 20 μg/mL. Tested compounds were dissolved in DMSO at 1 mM as a stock solution and were further diluted in the LPS solution to a final concentration of 10 μM. 100 μL of this solution was then transferred to the plated cells to obtain a final concentration of LPS at 10 μg/mL and compound at 5 μM ([…]). The culture supernatants were harvested after a 20 hour incubation period, SEAP activity in the culture supernatants was determined by a colorimetric assay using QuantiBlue (Invivogen). Plate absorbance was read at 630 nm using a Tecan Infinite M200 plate reader (Männedorf, Switzerland). The SEAP concentration was directly proportional to NF-κB activity, which was 2-point normalized to yield activity of compound 1+LPS as 200% and activity for LPS as 100%.
(§2) ISRE-bla THP-1 cells were plated in 96-well plates at 5×10^4 cells/well in 50 μl RPMI supplemented with 10% dialyzed FBS (Atlanta Biologicals, Inc., GA), 0.1 mM nonessential amino acids, 1 mM sodium pyruvate, 100 U/mL penicillin and 100 μg/ml streptomycin. Type I IFN-α (R&D Systems, #11200-2) solution was prepared in assay medium at a concentration of 200 U/mL Tested compounds were dissolved in DMSO at 1 mM and were further diluted in the IFN-α solution to a final concentration of 10 μM. 50 μL of this solution was then transferred to the plated cells to obtain a final concentration of IFN-α at 100 U/mL and compound at 5 μM ([…]), The cells were incubated for 16 hours, after which 20 μL of 6×LiveBLAzer™ FRET B/G Substrate (CCF4-AM) mixture (prepared according to the manufacturer's instructions) was added to each well, Plates were incubated at room temperature in the dark for 3 hours. Fluorescence was measured on a Tecan Infinite M200 plate reader at an excitation wavelength of 405 nm, and emission wavelengths of 465 nm and 535 nm. Background values (cell free wells at the same fluorescence wavelength) were subtracted from the raw fluorescence intensity values and the emission ratios were calculated as the ratio of background subtracted fluorescence intensities at 465 nm to background subtracted fluorescence intensities at 535 nm. The ISRE activity values for these compounds were 2-point normalized to yield activity of compound 1+IFN-α as 200% and activity for IFN-α as 100%.
(§3) Measurement of NF-κB Activation Using THP1-Blue NF-κB Cells. THP1-Blue NF-κB cells were plated in 96-well plates at 10^5 cells/well in 100 μL of RPMI supplemented with 10% fetal bovine serum (FBS, Omega Scientific, Inc., Tarzana, Calif.), 100 U/mL penicillin, 100 μg/mL streptomycin (Thermo Fisher Scientific), and Normocin (Invivogen). LPS was prepared in assay medium at a concentration of 20 μg/mL. Tested compounds were dissolved in DMSO at 1 mM as a stock solution and were further diluted in the LPS solution to a final concentration of 10 μM. 100 μL of this solution was then transferred to the plated cells to obtain a final concentration of LPS at 10 μg/mL and compound at 5 μM ([…]). The culture supernatants were harvested after a 20 hours incubation period. SEAP activity in the culture supernatants was determined by a colorimetric assay using QuantiBlue (Invivogen). Plate absorbance was read at 630 nm using a Tecan Infinite M200 plate reader (Mannedorf, Switzerland). The SEAP concentration was directly proportional to NF-κB activity, which was two-point normalized to yield activity of compound 1+LPS as 200% and activity for LPS as 100%.
Measurement of ISRE Activity in ISRE-bla THP-1 Cells. […]

THP-1 cells = test: Cell viability assay (MTT); conditions: compound 5 μM, 18 hours incubation; normalized to DMSO as 100%; mean
Procedure: THP-1 cells were plated in 96-well plates (10^5 cells/well) in 100 μL RPMI supplemented with 10% FBS, 100 U/mL penicillin and 100 μg/ml streptomycin. Compounds were dissolved in DMSO at 1 mM stock solution and were further diluted to 10 μM in the assay medium. 100 μL of this solution was added to the cells to obtain a final compound concentration of 5 μM ([…]). After 18 hours incubation, a solution of MTT in assay media (0.5 mg/mL) was added to each well and further incubated for 4 to 6 hours, followed by addition of cell lysis buffer (15% w/v SDS and 0.12% v/v 12N HCl aqueous solution), incubated overnight, and then absorbance measured at 570 nm using 650 nm as reference using Tecan Infinite M200 plate reader.
Cell Viability Assay. THP-1 cells were plated in 96-well plates (10^5 cells/well) in 100 μL RPMI supplemented with 10% FBS, 100 U/mL penicillin, and 100 μg/mL streptomycin. Compounds were dissolved in DMSO at 1 mM stock solution and were further diluted to 10 μM in the assay medium. 100 μL of this solution was added to the cells to obtain a final compound concentration of 5 μM ([…]). After 18 h incubation, a solution of MTT in assay media (0.5 mg/mL) was added to each well and further incubated for 4-6 hours, followed by addition of cell lysis buffer (15% w/v SDS and 0.12% v/v 12 N HCl aqueous solution), incubation overnight, and then absorbance was measured at 570 nm using 650 nm as reference using Tecan Infinite M200 plate reader.

NF-κB = test: Measurement of NF-κB activation using THP1-Blue NF-κB cells (SEAP reporter, LPS as primary stimulus); conditions: for NF-κB % Activation / activity at 5 µM: compound 5 μM + LPS, 20 hour incubation, two point normalized: compound 1 + LPS = 200%, LPS = 100%, mean; for NF-κB activity (in words): with LPS
Procedure: as §1, §3

ISRE = test: Measurement of ISRE activity in ISRE-bla THP-1 cells (FRET, IFN-α as primary stimulus); conditions: for ISRE % Activation / activity at 5 µM: compound 5 μM + IFN-α 100 U/mL, 16 hours, two point normalized: compound 1 + IFN-α = 200%, IFN-α = 100%, mean; for activity at 5 µM: read-out: ISRE % Activation; for ISRE activity (in words): with IFN-α
Procedure: as §2
Measurement of ISRE Activity in ISRE-bla THP-1 Cells. ISREbla THP-1 cells were plated in 96-well plates at 5×10^4 cells/well in 50 μL of RPMI supplemented with 10% dialyzed FBS (Atlanta Biologicals, Inc., GA), 0.1 mM nonessential amino acids, 1 mM sodium pyruvate, 100 U/mL penicillin, and 100 μg/mL streptomycin. Type I IFN-α (R&D Systems, no. 11200-2) solution was prepared in assay medium at a concentration of 200 U/mL. Tested compounds were dissolved in DMSO at 1 mM and were further diluted in the IFN-α solution to a final concentration of 10 μM. 50 μL of this solution was then transferred to the plated cells to obtain a final concentration of IFN-α at 100 U/mL and compound at 5 μM ([…]). The cells were incubated for 16 hours, after which 20 μL of 6×LiveBLAzer FRET B/G substrate (CCF4-AM) mixture (prepared according to the manufacturer's instructions) was added to each well. Plates were incubated at room temperature in the dark for 3 hours. Fluorescence was measured on a Tecan Infinite M200 plate reader at an excitation wavelength of 405 nm and emission wavelengths of 465 and 535 nm. Background values (cell free wells at the same fluorescence wavelength) were subtracted from the raw fluorescence intensity values and the emission ratios were calculated as the ratio of background subtracted fluorescence intensities at 465 nm to background subtracted fluorescence intensities at 535 nm. The ISRE activity values for these compounds were two-point normalized to yield activity of compound 1+IFN-α as 200% and activity for IFN-α as 100%.

Structure (SMILES)	activity in NF-κB and ISRE assays (in words) (NF-κB and ISRE)	MTT % Viability (THP-1 cells)	NF-κB % Activation (NF-κB)	ISRE % Activation (ISRE)	activity at 5 µM (NF-κB)	activity at 5 µM (ISRE; Homo sapiens, THP-1)	EC50 (NF-κB; dose response in the presence of LPS)	EC50 (ISRE; Homo sapiens, THP-1, dose response in the presence of IFN-α)	NF-κB activity (in words) (NF-κB)	ISRE activity (in words) (ISRE)
CCOc1ccc(S(=O)(=O)N(CCCNC(=O)CCCCCNC(=O)c2ccc3c(c2)C(=O)OC32c3ccc(O)cc3Oc3cc(O)ccc32)c2cc(OC)c(Cl)cc2OC)cc1 [Compound 56, N-(6-((3-((N-(4-chloro-2,5-dimethoxyphenyl)-4-ethoxyphenyl)sulfonamido)propyl)amino)-6-oxohexyl)-3′,6′-dihydroxy-3-oxo-3H-spiro[isobenzofuran-1,9′-xanthene]-5-carboxamide]	completely inactive	98.1%	100%	96%	–	–	–	–	–	–
COc1cccc(S(=O)(=O)Nc2cc(OC)c(Cl)cc2OC)c1 [Compound 23, N-(4-chloro-2,5-dimethoxyphenyl)-3-methoxybenzenesulfonamide]	none of these molecules were active	79.6%	–	–	116%	104%	–	–	–	–
CCOc1ccc(S(=O)(=O)N(CCCNC(=O)CCCC[C@H]2SC[C@H]3NC(=O)N[C@H]32)c2cc(OC)c(Cl)cc2OC)cc1 [Compound 58, N-(3-((N-(4-chloro-2,5-dimethoxyphenyl)-4-ethoxyphenyl)sulfonamido)propyl)-5-((3aR,4R,6aS)-2-oxohexahydro-1H-thieno[3,4-d]imidazol-4-yl)pentanamide]	equipotent to compound 1	69.6%	195%	175%	–	–	–	–	–	–
CCOc1ccc(S(=O)(=O)Nc2ccc(Cl)c(OC)c2)cc1 [Compound 4, N-(4-chloro-3-methoxyphenyl)-4-ethoxybenzenesulfonamide]	complete loss of activity; also recorded: significant loss of activity	83.7%	–	–	126%	99%	–	–	–	–
COc1cc(NS(=O)(=O)c2ccccc2OC)c(OC)cc1Cl [Compound 24, N-(4-chloro-2,5-dimethoxyphenyl)-2-methoxybenzenesulfonamide]	none of these molecules were active	92.1%	–	–	96%	101%	–	–	–	–
COc1ccc(S(=O)(=O)Nc2cc(OC)c(Cl)cc2OC)cc1 [Compound 12, N-(4-chloro-2,5-dimethoxyphenyl)-4-methoxybenzenesulfonamide]	tolerated; also recorded: retained activity	69.6%	–	–	226%	219%	1.85 µM	1.4 µM	–	–
CCNC(=O)CCCN(c1cc(OC)c(Cl)cc1OC)S(=O)(=O)c1ccc(OCC)cc1 [Compound 54, 4-((N-(4-chloro-2,5-dimethoxyphenyl)-4-ethoxyphenyl)sulfonamido)-N-ethylbutanamide]	retained activity	78.2%	206%	137%	–	–	–	–	retaining the NF-κB activity	reduction in ISRE activity
CCCc1ccc(S(=O)(=O)Nc2cc(OC)c(Cl)cc2OC)cc1 [Compound 16, N-(4-chloro-2,5-dimethoxyphenyl)-4-propylbenzenesulfonamide]	loss of activity	85.7%	–	–	102%	103%	–	–	–	–
CCOc1ccc(S(=O)(=O)Nc2cc(OC)c(Cl)cc2OC)cc1Br [Compound 25, 3-Bromo-N-(4-chloro-2,5-dimethoxyphenyl)-4-ethoxybenzenesulfonamide]	inactive	85.0%	–	–	87%	101%	–	–	–	–
C#CCOc1ccc(S(=O)(=O)Nc2cc(OC)c(Cl)cc2OC)cc1 [Compound 15, N-(4-chloro-2,5-dimethoxyphenyl)-4-(prop-2-yn-1-yloxy) benzenesulfonamide]	inactive	80.9%	97%	99%	–	–	–	–	–	–
CCOc1ccc(S(=O)(=O)N(c2cc(OC)c(Cl)cc2OC)C(C)C)cc1 [Compound 40, N-(4-chloro-2,5-dimethoxyphenyl)-4-ethoxy-N-isopropylbenzenesulfonamide]	inactive	103.2%	–	–	76%	169%	–	–	eliminated the NF-κB activity; also recorded: loss of NF-κB activity	retaining ISRE activity
